Measured values as given in article PMC7180572, “5-Alkylamino-N-phenylpyrazine-2-carboxamides: Design, Preparation, and Antimycobacterial Evaluation” (Molecules, 2020).
≈ marks a conversion by molar mass, not a printed value. Like-named read-outs stand apart in the source and are kept apart here.

What was measured:
[1] = tested on: Mycobacterium tuberculosis H37Ra ITM-M006710 (ATCC 9431); experiment: Microdilution broth, modified Microplate Alamar Blue Assay, whole cell growth inhibition; assay type: cell-based; settings: Mycobacterium tuberculosis; in vitro, Middlebrook 7H9 broth, resazurin; read-out: MIC Mtb H37Ra
[2] = assay type: physicochemical
Experimental: As a complementary test, final compounds were tested for in vitro activity against selected fungal and bacterial pathogens of clinical importance. The microdilution broth method was performed according to The European Committee on Antimicrobial Susceptibility Testing (EUCAST) instructions with slight modifications. The minimum inhibitory concentration was expressed in µM. Not all compounds were evaluated due to the fact of a problem with solubility which occurred for 18 samples. […] See Supplementary Materials for the list of tested strains, methodology, and full results.

HepG2 cells = experiment: HepG2 cytotoxicity, CellTiter 96 (MTS) assay; assay type: cell-based, human; settings: Homo sapiens, read-out: HepG2 IC50
[3] = tested on: Mycobacterium smegmatis DSM 43465 (ATCC 607); experiment: Microdilution broth, modified Microplate Alamar Blue Assay, whole cell growth inhibition; assay type: cell-based; settings: Mycolicibacterium smegmatis, read-out: MIC Mycobacterium smegmatis
[4] = tested on: Mycobacterium aurum DSM 43999 (ATCC 23366); experiment: as above; assay type: cell-based; settings: Mycolicibacterium aurum, read-out: MIC Mycobacterium aurum
[5] = tested on: Candida parapsilosis ATCC 22019, CCM 8260; experiment: Antifungal microdilution broth method (EUCAST); assay type: cell-based; settings: Lodderomyces parapsilosis, read-out: MIC CP
[6] = tested on: Staphylococcus aureus methicillin resistant ATCC 43300, CCM 4750; experiment: microbe, parasite or virus in culture; assay type: cell-based; settings: ATCC 43300 / CCM 4750 / MRSA, read-out: MIC MRSA
[7] = tested on: Staphylococcus epidermidis ATCC 12228, CCM 4418; experiment: Antibacterial microdilution broth method (EUCAST); assay type: cell-based; settings: read-out: MIC SE
[8] = tested on: Acinetobacter baumanii ATCC 19606, DSM 30007; experiment: Antibacterial microdilution broth method (EUCAST); assay type: cell-based; settings: Acinetobacter baumannii
[9] = tested on: Candida krusei ATCC 6258, CCM 8271; experiment: Antifungal microdilution broth method (EUCAST); assay type: cell-based; settings: Pichia kudriavzevii, read-out: MIC CK
[10] = tested on: Aspergillus flavus CCM 8363; experiment: Antifungal microdilution broth method (EUCAST); assay type: cell-based; settings: read-out: MIC AFla
[11] = tested on: Trichophyton interdigitale ATCC 9533, CCM 8377; experiment: Antifungal microdilution broth method (EUCAST); assay type: cell-based; settings: read-out: MIC TI
[12] = tested on: Absidia corymbifera CCM 8077 (Lichtheimia corymbifera); experiment: Antifungal microdilution broth method (EUCAST); assay type: cell-based; settings: read-out: MIC AC
[13] = tested on: Pseudomonas aeruginosa ATCC 27853, CCM 3955; experiment: Antibacterial microdilution broth method (EUCAST); assay type: cell-based; settings: read-out: MIC PA
[14] = tested on: Staphylococcus aureus spp.aureus ATCC 29213, CCM 4223; experiment: Antibacterial microdilution broth method (EUCAST); assay type: cell-based; settings: read-out: MIC SA
[15] = tested on: Escherichia coli ATCC 25922, CCM 3954; experiment: Antibacterial microdilution broth method (EUCAST); assay type: cell-based; settings: read-out: MIC EC
[16] = tested on: Enterococcus faecalis ATCC 29212, CCM 4224; experiment: Antibacterial microdilution broth method (EUCAST); assay type: cell-based; settings: read-out: MIC EF
[17] = tested on: Candida tropicalis ATCC 750, CCM 8264; experiment: Antifungal microdilution broth method (EUCAST); assay type: cell-based; settings: read-out: MIC CT
[18] = tested on: Klebsiella pneumoniae ATCC 10031, CCM 4415; experiment: Antibacterial microdilution broth method (EUCAST)
[19] = tested on: Aspergillus fumigatus ATCC 204305; experiment: Antifungal microdilution broth method (EUCAST); assay type: cell-based; settings: read-out: MIC AF
[20] = tested on: Candida albicans ATCC 24433, CCM 8320; experiment: Antifungal microdilution broth method (EUCAST); assay type: cell-based; settings: read-out: MIC CA
[21] = HepG2, 24 h incubation, > means higher concentration not reproducible due to precipitation
[22] = in vitro, Middlebrook 7H9 broth, resazurin

Question: Which MIC [1] does the source give for `CCCCNc1cnc(C(=O)Nc2cc(Cl)ccc2O)cn1` [Compound 7b, 5-(Butylamino)pyrazine-N-(5-chloro-2-hydroxyphenyl)-2-carboxamide] here?
Answer: ≥ 500 µg/mL

Question: And the melting point?
Answer: 257.9 to 262.1 °C

Question: What about the “Solubility problem in antibacterial/antifungal testing” value [2] of the same molecule?
Answer: did not dissolve in DMSO

Question: What about the IC50 (HepG2 cells; [21]) of the same molecule?
Answer: > 25 µM

Question: What about the MIC [3, 22] of the same molecule?
Answer: 3.91 µg/mL (≈ 12.2 µM)

Question: And the MIC [4, 22]?
Answer: ≥ 500 µg/mL

Question: Which MIC [1] does the source give for `CCCNc1cnc(C(=O)Nc2cc(Cl)ccc2O)cn1` [Compound 7a, N-(5-chloro-2-hydroxyphenyl)-5-(propylamino)pyrazine-2-carboxamide] here?
Answer: ≥ 500 µg/mL

Question: What about the melting point of the same molecule?
Answer: 254 to 259 °C

Question: And the “Solubility problem in antibacterial/antifungal testing” value [2]?
Answer: did not dissolve in DMSO

Question: And the IC50 (HepG2 cells; [21])?
Answer: > 25 µM

Question: What about the MIC [3, 22] of the same molecule?
Answer: < 3.91 µg/mL

Question: And the MIC [4, 22]?
Answer: 250 µg/mL (≈ 815 µM)

Question: For `CCCCCCCNc1cnc(C(=O)Nc2cccc(C(F)(F)F)c2)cn1` [Compound 1e, 5-(Heptylamino)-N-(3-(trifluoromethyl)phenyl)pyrazine-2-carboxamide], which MIC ([5]; 24 h) is on record?
Answer: > 500 µM

Question: And the MIC ([5]; 48 h)?
Answer: > 500 µM

Question: And the MIC ([6]; 24 h)?
Answer: > 500 µM

Question: And the MIC ([6]; 48 h)?
Answer: > 500 µM

Question: And the MIC ([7]; 24 h)?
Answer: > 500 µM

Question: What about the MIC ([7]; 48 h) of the same molecule?
Answer: > 500 µM

Question: What about the MIC [1] of the same molecule?
Answer: ≥ 500 µg/mL

Question: What about the MIC ([8]; 24h) of the same molecule?
Answer: > 500 µM

Question: And the MIC ([8]; 48h)?
Answer: > 500 µM

Question: And the MIC ([9]; 24 h)?
Answer: > 500 µM

Question: And the MIC ([9]; 48 h)?
Answer: > 500 µM

Question: And the MIC ([10]; CCM8363, 24 h)?
Answer: > 500 µM

Question: And the MIC ([10]; CCM8363, 48 h)?
Answer: > 500 µM

Question: And the MIC ([11]; 72 h)?
Answer: > 500 µM

Question: What about the MIC ([11]; 120 h) of the same molecule?
Answer: > 500 µM

Question: What about the MIC ([12]; CCM8077, 24 h) of the same molecule?
Answer: > 500 µM

Question: And the MIC ([12]; CCM8077, 48 h)?
Answer: > 500 µM

Question: What about the melting point of the same molecule?
Answer: 148 to 149 °C

Question: What about the MIC ([13]; 72 h) of the same molecule?
Answer: > 500 µM

Question: And the MIC ([13]; 120 h)?
Answer: > 500 µM

Question: And the IC50 (HepG2 cells; HepG2, 24 h)?
Answer: 223 µM

Question: What about the MIC [3] of the same molecule?
Answer: ≥ 500 µg/mL

Question: And the MIC ([14]; 24 h)?
Answer: > 500 µM

Question: What about the MIC ([14]; 48 h) of the same molecule?
Answer: > 500 µM

Question: What about the MIC ([15]; 24 h) of the same molecule?
Answer: > 500 µM

Question: And the MIC ([15]; 48 h)?
Answer: > 500 µM

Question: And the MIC ([16]; 24 h)?
Answer: > 500 µM

Question: What about the MIC ([16]; 48 h) of the same molecule?
Answer: > 500 µM

Question: And the MIC ([17]; 24 h)?
Answer: > 500 µM

Question: What about the MIC ([17]; 48 h) of the same molecule?
Answer: > 500 µM

Question: What about the “MIC KP” value ([18]; 24h) of the same molecule?
Answer: > 500 µM

Question: What about the “MIC KP” value ([18]; 48h) of the same molecule?
Answer: > 500 µM

Question: What about the MIC ([19]; ATCC204305, 24 h) of the same molecule?
Answer: > 500 µM

Question: What about the MIC ([19]; ATCC204305, 48 h) of the same molecule?
Answer: > 500 µM

Question: And the MIC [4]?
Answer: 62.5 µg/mL (≈ 164 µM)

Question: What about the MIC ([20]; 24 h) of the same molecule?
Answer: > 500 µM

Question: And the MIC ([20]; 48 h)?
Answer: > 500 µM
